The subject of this test is Dictyostelium cells. Put plainly: Development of Dictyostelium cells in the presence of AFC (time-lapse imaging, FIG. 7). It counts as cell-based. The source says: Accordingly, some embodiments of the present invention are directed to assays testing the effects of AFC on Dictyostelium cells.

Take `CC(=O)N[C@@H](CSC/C=C(\C)CC/C=C(\C)CCC=C(C)C)C(=O)O` [AFC, N-acetyl-farnsyl cysteine]: the “ability of the cells to form fruiting bodies” value (Dictyostelium cells treated with AFC) is reported as “inhibited”. For the same molecule, the “mechanism by which individual cells aggregate into multicellular clusters (head-to-tail streaming while migrating)” value (compared with untreated cells, which line up head-to-tail and form streams, FIG. 7, 6.5, 8.5 and 9.25 hours) was “migrate, but do not line up head-to-tail”.
